According to US11446269B2, “Methods of reducing or preventing oxidation of small dense LDL or membrane polyunsaturated fatty acids” (Amarin Pharmaceuticals Ireland Limited, priority 2014, dated 2022):

Legend:
[1] = Glucose-induced membrane lipid peroxidation (LOOH, CHOD-iodide assay) in DLPC/cholesterol multilamellar vesicles (Example 4); format: biochemical
Experimental: Vitamin E (α-tocopherol) was also purchased from Sigma-Aldrich and prepared in ethanol at 1.0 mM (ε=3.06×10^4 M^−1 cm^−1 at 294 nm) just prior to experimental use. […] All test compounds were further diluted in ethanol or aqueous buffer as needed. Glucose was prepared in saline buffer (0.5 mM HEPES, 154 mM NaCl, pH 7.3) at 11.0 mM (200 mg/dL). CHOD-iodide color reagent (stock) was prepared, with slight modification, as described by from El-Saadani et al. (J. […] Samples were shell-dried under nitrogen gas and placed under vacuum for 1 h to remove residual solvent. […] Lipid suspensions were then vortexed for 3 min at ambient temperature to form MLVs. All MLV samples were subjected to time-dependent autoxidation by incubating at 37° C. in an uncovered, shaking water bath. This method allows lipid peroxidation to occur gradually without requiring the use of exogenous initiators. Small aliquots (5-100 μL) of each sample were removed, immediately following MLV preparation (0 hour) and after exposing samples to oxidative conditions for 72 or 96 hour, and combined with 1.0 mL of activated CHOD-iodide color reagent. Aliquot volume was reduced with each successive time point to ensure that spectrophotometric readings were within the optimal adsorption range. Test samples were covered and incubated in darkness at room temperature for at least 4 hr. Sample absorbances were then measured against a CHOD blank at 365 nm using a Beckman DU-640 spectrophotometer. The CHOD colorimetric assay is based on the oxidation of iodide (I^−) by lipid hydroperoxide (LOOH) to form triiodide (I3^−), the quantity of which is directly proportional to the amount of LOOH present in the lipid sample. The molar absorptivity (c) of I3^− is 2.46×10^4 M^−1 cm^−1 at 365 nm. […] The concentration of glucose selected was consistent with previous experimental studies of hyperglycemia under controlled laboratory conditions or observed in well-defined animal models of Type II diabetes following a glucose challenge. […] Values in FIG. 1 are mean±S.D. (N=6). EPA inhibited the peroxidative effects of glucose by 88% and 86% at 72 and 96 hours, respectively, which was highly significant (p<0.001) as compared to glucose treatment alone. […] Overall ANOVA—0 hour data: p=0.6655, F=0.4185; 72 hour data: p<0.0001, F=428.72; 96 hour data: p<0.0001, F=322.01.

human sdLDL = assay: Copper-induced sdLDL oxidation, TBARS after 2 hr (Example 6); format: biochemical; settings: 10 μM CuSO4, vs vehicle
Experimental: Venous blood was collected from healthy volunteers into vacutainer tubes containing sodium EDTA. Plasma was separated by centrifugation at 3000 g for 25 min at 4° C. and adjusted to a density of 1.020 g/mL with KBr. Triglyceride-rich lipoproteins (TGRL) and LDL fractions were then isolated by sequential centrifugation at 70,000 rpm at 4° C. in a Beckman LE-80 ultracentrifuge using a Beckman 50.4Ti rotor (Beckman Coulter, Inc., Fullerton, Calif.). The TGRL fraction (with a relative density of <1.020) was aspirated from the top of the centrifugate and discarded, leaving an LDL-enriched infranate (with a relative density of 1.020 to 1.063). The plasma LDL fraction was further fractionated into LDL1, LDL2, LDL3, and LDL4 (sdLDL) subfractions with relative densities of 1.020 to 1.035, 1.035 to 1.050, 1.050 to 1.063, and 1.063 to 1.075, respectively. The sdLDL subfraction was retained for additional experimentation. Plasma and lipoprotein fractions were maintained at 4° C. and protected from excessive exposure to light. Prior to oxidation experiments, EDTA was removed from the lipoprotein fraction using PD-10 desalting columns (GE Healthcare, Piscataway N.J.). After equilibration of the column with phosphate buffered saline (PBS), 2.5 mL of the lipoprotein fraction was loaded on the column and the flow-through discarded. The lipoprotein was then eluted with 3 mL of PBS. The LDL fractions were further diluted with PBS to obtain a 100 μg/mL apoB100 concentration.
LDL and sdLDL subfractions (0.6 mL each) were incubated with either 10 μL vehicle (ethanol) or 10 μL drug stock solution for 30 min to 1 hr at 37° C. Oxidation was initiated by the addition of 10 μM CuSO4. After 2 hr, 100 μL aliquots were removed from each subfraction and combined with 1.0 mL thiobarbituric acid (0.5%), 10 μL trichloroacetic acid (5%), 10 μL BHT (5 mg/mL in methanol), and 10 μL EDTA (5 mM). […]. Sample TBARS concentrations were determined spectrophotometrically by measuring sample absorbances against a standard curve derived from the hydrolysis of 1,1,3,3-tetramethoxypropane.

With `CC/C=C\C/C=C\C/C=C\C/C=C\C/C=C\CCCC(=O)O` [EPA, cis-5,8,11,14,17-eicosapentaenoic acid] as the compound, how does the “antioxidant effect on glucose-induced LOOH formation” value ([1]; 1.0 μM, glucose 200 mg/dL, 96 hours) read?
Its value is “potent antioxidant effects”.

What about the “effect on LOOH formation / lipid peroxidation” value ([1]; 72- and 96-hour time points, 1:30 drug-to-phospholipid mole ratio, glucose 200 mg/dL) of the same compound?
The value was “significantly inhibited LOOH formation”.

And the “effect on membrane LOOH formation” value ([1]; tested at 1.0 and 5.0 μM, glucose-treated)?
The value was “inhibit membrane LOOH formation in a dose-dependent manner”.

What about the “reduction of TBARS levels” value (human sdLDL; 1.0 μM) of the same compound?
The value was 13%.

And the “reduction of TBARS levels” value (human sdLDL; 10.0 μM)?
The value was 57%.
